Source: the Deep4Chem optical property database
Values belong to the compound of their own block, whether it stands above or below them.

Assay: photoluminescence quantum yield (fraction); solvent given as SMILES
[1] = in c1cc(-c2cccc(-n3c4ccccc4c4ccccc43)c2)cc(-n2c3ccccc3c3ccccc32)c1

photoluminescence quantum yield (in CCOC(C)=O): 0.99
Compound: CCn1c(-c2ccc(-c3ccc4c(c3)C(c3ccccc3)(c3ccccc3)c3ccccc3-4)cc2)c(-c2ccc3ccccc3c2)c(-c2ccc3ccccc3c2)c1-c1ccc(-c2ccc3c(c2)C(c2ccccc2)(c2ccccc2)c2ccccc2-3)cc1

photoluminescence quantum yield (in C1CCOC1): 0.16 | photoluminescence quantum yield (in CN(C)C=O): 0.14 | photoluminescence quantum yield (in ClCCl): 0.16 | photoluminescence quantum yield (in c1ccccc1): 0.21
Compound: F[B-]1(F)n2c(c3cc4ccccc4cc3c2-c2ccccc2)C=C2c3cc4ccccc4cc3C(c3ccccc3)=[N+]21

photoluminescence quantum yield (in ClC(Cl)Cl): 0.9
Compound: CCCCCCCCCCCCOc1ccc(C2=C3C(=O)N(CC(OCC)OCC)C(c4ccc(OCCCCCCCCCCCC)c(OCCCCCCCCCCCC)c4)=C3C(=O)N2CC(OCC)OCC)cc1OCCCCCCCCCCCC

photoluminescence quantum yield (in ClC(Cl)Cl): 0.827
Compound: COc1ccc(-c2ccc(-c3c4c(nc5ccccc35)-c3cc5c(cc3CC4)-c3nc4ccccc4c(-c4ccc(-c6ccc(OC)cc6)cc4)c3CC5)cc2)cc1

photoluminescence quantum yield (in ClC(Cl)Cl): 0.08
Compound: C[Si](C)(C)C#Cc1c2c(=O)c3ccccc3c2c(C#C[Si](C)(C)C)c2c(=O)c3ccccc3c12

photoluminescence quantum yield (in ClCCl): 0.38
Compound: [BH3-][P+]1(c2ccccc2)c2ccccc2-c2sc3ccccc3c21 (stereo unspecified)

photoluminescence quantum yield (in ClC(Cl)Cl): 0.86
Compound: CC(C)(C)c1ccc(Oc2cc3c4c(cc(Oc5ccc(C(C)(C)C)cc5)c5c6c(Oc7ccc(C(C)(C)C)cc7)cc7c8c(cc(Oc9ccc(C(C)(C)C)cc9)c(c2c45)c86)C(=O)N(c2ccccc2)C7=O)C(=O)N(c2ccccc2)C3=O)cc1

photoluminescence quantum yield (in C1CCOC1): 0.0137
Compound: C1=C(c2ccccc2)C(c2ccccc2)=CC1c1ccccc1

photoluminescence quantum yield (in ClCCl): 0
Compound: O=[N+]([O-])c1ccc(-c2nc(/C=C/c3ccc(Cl)cc3)c(/C=C/c3ccc(Cl)cc3)[nH]2)cc1

photoluminescence quantum yield (in ClC(Cl)Cl): 0.068
Compound: c1ccc(-c2nc(-c3ccccc3)c(N(c3ccccc3)c3ccccc3)[se]2)cc1

photoluminescence quantum yield (in O): 0.34
Compound: CC[n+]1nc2cc3c4c(c2c2cc(F)ccc21)CCCN4CCC3

photoluminescence quantum yield (in CC#N): 0.002
Compound: COc1ccc(-c2nc3c([nH]2)=C2C=C(Cl)S[C@@]2(C)[C@]2(C)SC(Cl)=CC=32)cc1

photoluminescence quantum yield (in CC#N): 0.009 | photoluminescence quantum yield (in CCCCCCC): 0.051 | photoluminescence quantum yield (in CO): 0.003 | photoluminescence quantum yield (in O): 0.024
Compound: O=[N+]([O-])c1ccc(/C=C/c2c[nH]c3ccccc23)cc1

photoluminescence quantum yield (in C1CCCCC1): 0.97
Compound: c1ccc(-c2c3ccccc3c(-c3ccccc3)c3ccccc23)cc1

photoluminescence quantum yield (in CC#N): 0.5 | photoluminescence quantum yield (in CS(C)=O): 0.32 | photoluminescence quantum yield (in ClC(Cl)Cl): 0.55
Compound: C#CCn1c2ccccc2c2cc(/C=C/C3=[N+]4C(=C(c5ccc(I)cc5)c5c(C)c(Cl)c(/C=C/c6ccc7c(c6)c6ccccc6n7CC#C)n5[B-]4(F)F)C(C)=C3Cl)ccc21

photoluminescence quantum yield (in ClCCl): 0.69
Compound: Brc1ccc(N(c2ccc(/C=C/c3ccncn3)cc2)c2ccc(/C=C/c3ccncn3)cc2)cc1

photoluminescence quantum yield [1]: 0.73 | photoluminescence quantum yield (in c1cc(-n2c3ccccc3c3ccccc32)cc(-n2c3ccccc3c3ccccc32)c1): 0.73
Compound: O=c1c2ccccc2n2c3ccc(-c4ccccc4)cc3c(=O)c3cccc1c32

photoluminescence quantum yield (in C1CCCCC1): 0.13 | photoluminescence quantum yield (in CC#N): 0 | photoluminescence quantum yield (in CO): 0 | photoluminescence quantum yield (in ClC(Cl)Cl): 0.35
Compound: CN(C)c1ccc2nc(-c3ccc(C=C4C(=O)c5ccccc5C4=O)cc3)sc2c1

photoluminescence quantum yield (in CS(C)=O): 0.08
Compound: C[N+]1=C(/C=C/C=C2/N(CCC[N+](C)(C)C)c3ccccc3C2(C)C)C(C)(C)c2ccccc21

photoluminescence quantum yield (in ClCCl): 0.781
Compound: CC(C)(C)c1ccc2ccc3cc(-c4ccc5c(-c6ccc7c(ccc8ccc(C(C)(C)C)cc87)c6)cc6c7cc(-c8ccc9c(ccc%10ccc(C(C)(C)C)cc%109)c8)ccc7c(-c7ccc8c(ccc9ccc(C(C)(C)C)cc98)c7)cc6c5c4)ccc3c2c1

photoluminescence quantum yield (in ClC(Cl)Cl): 0.09
Compound: O=c1c2ccccc2c2c(C#C[Si](c3ccccc3)(c3ccccc3)c3ccccc3)c3c(=O)c4ccccc4c3c(C#C[Si](c3ccccc3)(c3ccccc3)c3ccccc3)c12

photoluminescence quantum yield (in CC1CCCO1): 0.35
Compound: COc1c(-c2c(OC)c3cccc4ccc5oc(=O)cc2c5c43)c2cc(=O)oc3ccc4cccc1c4c32

photoluminescence quantum yield (in CS(C)=O): 0.002 | photoluminescence quantum yield (in ClCCl): 0.67
Compound: CCN(CC)c1ccc2c(c1)oc(=O)c1c(=O)oc3c(C)c4oc(=O)c5c(=O)oc6cc(N(CC)CC)ccc6c5c4cc3c12

photoluminescence quantum yield (in C1CCCCC1): 0.86
Compound: CCCC1(CCC)c2cc(-c3ccco3)ccc2-c2ccc(-c3ccco3)cc21

photoluminescence quantum yield (in ClC(Cl)Cl): 0.03
Compound: CC(=C(C#Cc1ccccc1)C#Cc1ccccc1)c1ccc(C(C)=C(C#Cc2ccccc2)C#Cc2ccccc2)cc1

photoluminescence quantum yield (in CC#N): 0.016 | photoluminescence quantum yield (in CC(C)O): 0.008 | photoluminescence quantum yield (in CCO): 0.0007 | photoluminescence quantum yield (in CCOC(C)=O): 0.028 | photoluminescence quantum yield (in CO): 0.0002
Compound: Nc1ccc2c(c1)C(=O)c1ccc(N)cc1C2=O

photoluminescence quantum yield (in CS(C)=O): 0.7
Compound: Cn1c2ccc(S(=O)(=O)Cl)cc2c(=O)c2cc(S(=O)(=O)Cl)ccc21

photoluminescence quantum yield (in CCCCCCC): 0.00088
Compound: c1ccc2c3c(ccc2c1)-c1c2ccccc2cc2cccc-3c12

More lines, now with the values behind:

Compound: C#CCN1C(=O)/C(=C/c2cc(OC(C)C)ccc2OC(C)C)N=C1C
photoluminescence quantum yield (in C1COCCO1): 0.108 | photoluminescence quantum yield (in CC#N): 0.134 | photoluminescence quantum yield (in CC(C)=O): 0.12 | photoluminescence quantum yield (in CCCCCC): 0.089 | photoluminescence quantum yield (in CCCCO): 0.029 | photoluminescence quantum yield (in CCCO): 0.08 | photoluminescence quantum yield (in CCO): 0.025 | photoluminescence quantum yield (in CCOC(C)=O): 0.101 | photoluminescence quantum yield (in CN(C)C=O): 0.171 | photoluminescence quantum yield (in CO): 0.019 | photoluminescence quantum yield (in CS(C)=O): 0.182

Compound: CCOC(=O)CN1C(=O)C2=C(c3ccc(C#N)cc3)N(CC(=O)OCC)C(=O)C2=C1c1ccc(C#N)cc1
photoluminescence quantum yield (in CC#N): 0.32 | photoluminescence quantum yield (in CS(C)=O): 0.72 | photoluminescence quantum yield (in Cc1ccccc1): 0.29

Compound: Nc1n[n+]([O-])c2ccccc2[n+]1[O-]
photoluminescence quantum yield (in CC#N): 0.006 | photoluminescence quantum yield (in O): 0.0033

Compound: CCOC(=O)/C(C#N)=C\c1ccc2c(c1)c1ccccc1n2-c1ccc(C)cc1
photoluminescence quantum yield (in C1CCOC1): 0.09 | photoluminescence quantum yield (in CC#N): 0.01 | photoluminescence quantum yield (in CC(C)=O): 0.025 | photoluminescence quantum yield (in CCOC(C)=O): 0.11 | photoluminescence quantum yield (in CO): 0.06 | photoluminescence quantum yield (in CS(C)=O): 0.04 | photoluminescence quantum yield (in Cc1ccccc1): 0.095 | photoluminescence quantum yield (in ClC(Cl)Cl): 0.08

Compound: Cc1cc(C(F)(F)F)nc2c1ccc1nc(-c3ccc(F)c(F)c3)cn12
photoluminescence quantum yield (in CC#N): 0.84 | photoluminescence quantum yield (in CCCCOC(C)=O): 0.78 | photoluminescence quantum yield (in CO): 0.83 | photoluminescence quantum yield (in ClC(Cl)Cl): 0.96

Compound: COC(=O)/C(C#N)=c1\s/c(=c2/s/c(=C(/C#N)C(=O)OC)c3cc(-c4ccc(OC)cc4)sc23)c2sc(-c3ccc(OC)cc3)cc12
photoluminescence quantum yield (in Cc1ccccc1): 0.424

Compound: COc1ccc(-c2c3ccccc3c3n2[B-](F)(F)[N+]2=Cc4c5ccccc5c(-c5ccc(OC)cc5)n4[B-](F)(F)[N+]2=C3)cc1
photoluminescence quantum yield (in CC#N): 0.22 | photoluminescence quantum yield (in CCCCCC): 0.32 | photoluminescence quantum yield (in CN(C)C=O): 0.23 | photoluminescence quantum yield (in Cc1ccccc1): 0.31 | photoluminescence quantum yield (in ClCCl): 0.31

Compound: ClP1(Cl)=NP(Cl)(Cl)=NP(Cl)(Oc2ccc3ccc4cccc5ccc2c3c45)=N1 (stereo unspecified)
photoluminescence quantum yield (in ClCCl): 0.55

Compound: c1ccc(-p2c(-c3cccs3)cc3ccccc32)cc1 (stereo unspecified)
photoluminescence quantum yield (in C1CCOC1): 0.07

Compound: c1ccc(-c2nc(-c3ccccc3)c(-c3ccccc3)o2)cc1
photoluminescence quantum yield (in Cc1ccccc1): 0.36

Compound: CCN(CC)c1ccc2cc(/C=C/c3cccc[n+]3CCCS(=O)(=O)[O-])c(=O)oc2c1
photoluminescence quantum yield (in C1CCOC1): 0.14 | photoluminescence quantum yield (in CC#N): 0.11 | photoluminescence quantum yield (in CC(C)=O): 0.11 | photoluminescence quantum yield (in CS(C)=O): 0.16 | photoluminescence quantum yield (in Cc1ccccc1): 0.02 | photoluminescence quantum yield (in O): 0.03 | photoluminescence quantum yield (in OCC(O)CO): 0.19

Compound: CCCCC(CC)CN1C(=O)C2=C(c3ccc(-c4ccc(C5=C6C(C)=CC(C)=[N+]6[B-](F)(F)n6c(C)cc(C)c65)cc4)s3)N(CC(CC)CCCC)C(=O)C2=C1c1cccs1 (stereo unspecified)
photoluminescence quantum yield (in Cc1ccccc1): 0.57

Compound: CC1=N/C(=C\c2ccncc2)C(=O)N1C
photoluminescence quantum yield (in C1COCCO1): 0.165 | photoluminescence quantum yield (in CC#N): 0.047 | photoluminescence quantum yield (in CCO): 0.033 | photoluminescence quantum yield (in CCOC(C)=O): 0.089 | photoluminescence quantum yield (in O): 0.0065

Compound: CN(C)c1ccc(/C=C/C=C/c2ccc([N+](=O)[O-])c(O)c2)cc1
photoluminescence quantum yield (in C1CCCCC1): 0.13 | photoluminescence quantum yield (in C1COCCO1): 0.03 | photoluminescence quantum yield (in CCCCCCC): 0.1 | photoluminescence quantum yield (in Cc1ccccc1): 0.11

Compound: O=C(c1ccncc1)c1ccc(-n2c3ccc(-n4c5ccccc5c5ccccc54)cc3c3cc(-n4c5ccccc5c5ccccc54)ccc32)cc1
photoluminescence quantum yield (in Cc1ccccc1): 0.243 | photoluminescence quantum yield [1]: 0.96

Compound: CC[n+]1nc2ccc(N(C)C)cc2c2cc(C)ccc21
photoluminescence quantum yield (in O): 0.003

Compound: COc1cc(OC)c2cc(C#N)c(=N)oc2c1
photoluminescence quantum yield (in ClCCl): 0.047

Compound: CC(=O)c1c2c(cc3c(N(C)C)cccc13)CCC2
photoluminescence quantum yield (in C1CCCCC1): 0.28 | photoluminescence quantum yield (in C1CCOC1): 0.39 | photoluminescence quantum yield (in C1COCCO1): 0.44 | photoluminescence quantum yield (in CC#N): 0.23 | photoluminescence quantum yield (in CCO): 0.01 | photoluminescence quantum yield (in CS(C)=O): 0.48 | photoluminescence quantum yield (in Cc1ccccc1): 0.47 | photoluminescence quantum yield (in ClC(Cl)Cl): 0.4 | photoluminescence quantum yield (in ClCCl): 0.6

Compound: CCCC1=Cc2nc1ccc1[nH]c(cc1CCC)c1nc(c(OC(=O)CCCC(=O)OC(C)(C)C)cc3[nH]c2cc3CCC)C(CCC)=C1
photoluminescence quantum yield (in Cc1ccccc1): 0.21

Compound: CC(=O)Nc1ccc(/C=C2\OC(=O)c3cc(N)ccc32)cc1
photoluminescence quantum yield (in CC#N): 0.015 | photoluminescence quantum yield (in CC(C)=O): 0.02 | photoluminescence quantum yield (in CC(C)CO): 0.032 | photoluminescence quantum yield (in CC(C)O): 0.032 | photoluminescence quantum yield (in CCCO): 0.03 | photoluminescence quantum yield (in CCO): 0.028 | photoluminescence quantum yield (in CCOC(C)=O): 0.023 | photoluminescence quantum yield (in CCOCC): 0.04 | photoluminescence quantum yield (in CO): 0.02

Compound: N#Cc1cc(C#N)c(-n2c3ccccc3c3cc(-c4ccc5c(c4)c4ccccc4n5-c4cc(-n5c6ccccc6c6ccccc65)c(C#N)cc4C#N)ccc32)cc1-n1c2ccccc2c2ccccc21
photoluminescence quantum yield (in O=P(c1ccccc1)(c1ccccc1)c1ccccc1Oc1ccccc1P(=O)(c1ccccc1)c1ccccc1): 0.87

Compound: CCOC(=O)c1cc(C(=O)OCC)c2ccc(N(C)C)cc2n1
photoluminescence quantum yield (in CCO): 0.41

Compound: Nc1nc2c([nH]c(=O)n2[C@H]2C[C@H](O)[C@@H](CO)O2)c(=O)[nH]1
photoluminescence quantum yield (in O): 0.00013

Compound: CC(C)c1cc(C(C)C)c(B2c3ccccc3Oc3cc(N4c5ccccc5C(C)(C)c5ccccc54)ccc32)c(C(C)C)c1
photoluminescence quantum yield (in Cc1ccccc1): 1
